Here are results for 39 compounds from patent US8168656B2, “Indoleacetic acid and indenacetic acid derivatives as therapeutic agents with reduced gastrointestinal toxicity” (Vanderbilt University, priority 2009, dated 2012).

In one assay the test system is HCT-116 cells. The assay is described as follows: Cell viability assay (WST-1). The conditions noted are these: Homo sapiens. In kind it is cell-based. Here is the method: (§1) RKO and HCT-116 cells (human colorectal cancer cell lines) were cultured in microtiter plates (tissue culture grade, 96-well flat) in a final volume of 100 μl culture medium containing 5-8×10^4 cells and the final concentrations of chemicals (1-500 μM). Cells were incubated in a humidified atmosphere for 8-24 hours. To the cultures, 10 μl of cell proliferation reagent, WST-1 (Roche Applied Science, Indianapolis, Ind., United States of America) was added, and reincubated for 1-2 hours. The absorbance of the samples was determined using a microtiter plate reader at a wavelength of 405-450 nm against background control. Reference wavelength was 620 nm. The tetrazolium salt, WST-1 (4-[3-(4-Iodophenyl)-2-(4-nitrophenyl)-2H-5-tetrazolio]-1,3-benzene disulfonate) was metabolized to formazan by the “succinate-tetrazolium reductase” system, which exists in mitochondria and is active only in viable cells. Thus, the formation of formazan (dark yellow color) is proportional to the viable cell numbers.
(§2) The generated data points were used to calculate ED50 values by creating a sigmoidal dose-response curve using non-linear regression. ED50 valued were calculated using the statistical analysis program PRISM® (GraphPad Software, Inc., San Diego, Calif., United States of America).
Background: Tetrazolium dyes change colour on reduction, which living cells bring about.

The subject of the next assay is RKO cells. The assay is described as follows: Cell viability assay (WST-1). In kind it is cell-based. The conditions noted are these: Homo sapiens. On the procedure: as §1, §2
[1] abbreviates: concentration that reduces cell viability by 50%, read-out: ED50 HCT-116.
The mark [2] stands for this setting: concentration that reduces cell viability by 50%, read-out: ED50 RKO.
Setting [3] is: second part of Table 9, read-out: ED50 HCT-116.
[4] abbreviates: second part of Table 9, read-out: ED50 RKO.

Where two headings read alike, the source gives them in different places. Some results are limits rather than exact numbers.

As to `CSc1ccc(/C=C2\C=C(CC(=O)Nc3ccccc3)c3cc(F)ccc32)cc1` [Compound 2], the EC50 in the assay on HCT-116 cells (setting [1]) and in the assay with RKO cells (setting [2]) was over 3 µM throughout.
For `CSc1ccc(/C=C2\C=C(CC(=O)NCc3ccccc3)c3cc(F)ccc32)cc1` [Compound 3], the EC50 in the assay on HCT-116 cells (setting [1]) came to 3.9 ± 0.9 µM; with RKO cells (setting [2]), 1.1 ± 0.7 µM.
In the case of `CSc1ccc(/C=C2\C=C(CC(=O)NCCc3ccccc3)c3cc(F)ccc32)cc1` [Compound 4], the EC50 in the assay with HCT-116 cells (setting [1]) and with RKO cells (setting [2]) was over 3 µM in each case.
In the case of `CSc1ccc(/C=C2\C=C(CC(=O)NCCCc3ccccc3)c3cc(F)ccc32)cc1` [Compound 5], the EC50 in the assay on HCT-116 cells (setting [1]) and in the assay on RKO cells (setting [2]) was over 3 µM in each case.
For the compound `CSc1ccc(/C=C2\C=C(CC(=O)N(C)Cc3ccccc3)c3cc(F)ccc32)cc1` [Compound 6], the EC50 with HCT-116 cells (setting [1]) and with RKO cells (setting [2]) was over 3 µM in each case.
Regarding `CSc1ccc(/C=C2\C=C(CC(=O)N[C@@H](C)c3ccccc3)c3cc(F)ccc32)cc1` [Compound 7], the EC50 in the assay with HCT-116 cells (setting [1]) and with RKO cells (setting [2]) was over 3 µM throughout.
For the compound `CSc1ccc(/C=C2\C=C(CC(=O)N[C@H](C)c3ccccc3)c3cc(F)ccc32)cc1` [Compound 8], the EC50 in the assay on HCT-116 cells (setting [1]) and in the assay on RKO cells (setting [2]) was over 3 µM throughout.
In the case of `CSc1ccc(/C=C2\C=C(CC(=O)NCc3ccncc3)c3cc(F)ccc32)cc1` [Compound 9], the EC50 in the assay on HCT-116 cells (setting [1]) and in the assay on RKO cells (setting [2]) was over 3 µM throughout.
Consider `CSc1ccc(/C=C2\C=C(CC(=O)Nc3ccc(F)cc3Cl)c3cc(F)ccc32)cc1` [Compound 10], for which the EC50 in the assay with HCT-116 cells (setting [1]) and in the assay on RKO cells (setting [2]) was over 3 µM throughout.
Consider `COc1ccc(NC(=O)CC2=C/C(=C\c3ccc(SC)cc3)c3ccc(F)cc32)cc1` [Compound 11], for which the EC50 in the assay on HCT-116 cells (setting [1]) and in the assay on RKO cells (setting [2]) was over 3 µM throughout.
For the compound `CSc1ccc(/C=C2\C=C(CC(=O)NCc3ccc(N)cc3)c3cc(F)ccc32)cc1` [Compound 12], the results for the EC50 in the assay with HCT-116 cells (setting [1]) and with RKO cells (setting [2]) were over 3 µM and 2.3 ± 0.03 µM, respectively.
Regarding `CSc1ccc(/C=C2\C=C(CC(=O)NCc3cccc(N)c3)c3cc(F)ccc32)cc1` [Compound 13], the values for the EC50 in the assay with HCT-116 cells (setting [1]) and in the assay with RKO cells (setting [2]) were 2.08 ± 0.08 µM and 0.99 ± 0.03 µM, respectively.
Turning to `CSc1ccc(/C=C2\C=C(CC(=O)NCc3ccccc3N)c3cc(F)ccc32)cc1` [Compound 14], the EC50 in the assay with HCT-116 cells (setting [1]) and in the assay with RKO cells (setting [2]) was over 3 µM each time.
Turning to `CSc1ccc(/C=C2\C=C(CC(=O)NCc3ccc(O)cc3)c3cc(F)ccc32)cc1` [Compound 15], the EC50 with HCT-116 cells (setting [1]) came to 1.2 ± 0.2 µM; in the assay with RKO cells (setting [2]), 0.1 ± 0.04 µM.
Regarding `CSc1ccc(/C=C2\C=C(CC(=O)NCc3cccc(O)c3)c3cc(F)ccc32)cc1` [Compound 16], the EC50 was determined as 1.47 ± 0.03 µM with HCT-116 cells (setting [1]) and 0.83 ± 0.06 µM in the assay with RKO cells (setting [2]).
As to `CSc1ccc(/C=C2\C=C(CC(=O)NCc3ccc(C)cc3)c3cc(F)ccc32)cc1` [Compound 17], the EC50 with HCT-116 cells (setting [1]) is 1.2 ± 0.1 µM; in the assay on RKO cells (setting [2]), 0.73 ± 0.06 µM.
As to `CSc1ccc(/C=C2\C=C(CC(=O)NCc3cccc(C)c3)c3cc(F)ccc32)cc1` [Compound 18], the EC50 in the assay with HCT-116 cells (setting [1]) and with RKO cells (setting [2]) was over 3 µM each time.
Regarding `CSc1ccc(/C=C2\C=C(CC(=O)NCc3ccccc3C)c3cc(F)ccc32)cc1` [Compound 19], the EC50 in the assay with HCT-116 cells (setting [1]) and with RKO cells (setting [2]) was over 3 µM throughout.
With `CSc1ccc(/C=C2\C=C(CC(=O)NCc3ccc(Cl)cc3)c3cc(F)ccc32)cc1` [Compound 20], the EC50 in the assay with HCT-116 cells (setting [1]) stood at 0.8 ± 0.1 µM; in the assay on RKO cells (setting [2]) it was 0.63 ± 0.07 µM.
Regarding `CSc1ccc(/C=C2\C=C(CC(=O)NCc3cccc(Cl)c3)c3cc(F)ccc32)cc1` [Compound 21], the EC50 with HCT-116 cells (setting [1]) and in the assay with RKO cells (setting [2]) was over 3 µM throughout.
As to `CSc1ccc(/C=C2\C=C(CC(=O)NCc3ccc(Br)cc3)c3cc(F)ccc32)cc1` [Compound 22], the EC50 in the assay with HCT-116 cells (setting [1]) worked out at 1.3 ± 0.2 µM; in the assay on RKO cells (setting [2]), 0.67 ± 0.07 µM.
On to `CSc1ccc(/C=C2\C=C(CC(=O)NCc3cccc(Br)c3)c3cc(F)ccc32)cc1` [Compound 23], for which the EC50 with HCT-116 cells (setting [1]) and in the assay with RKO cells (setting [2]) was over 3 µM each time.
As for `CSc1ccc(/C=C2\C=C(CC(=O)NCc3ccc(C(F)(F)F)cc3)c3cc(F)ccc32)cc1` [Compound 24], the EC50 in the assay on HCT-116 cells (setting [1]) and with RKO cells (setting [2]) was over 3 µM throughout.
As for `CSc1ccc(/C=C2\C=C(CC(=O)NCc3cccc(C(F)(F)F)c3)c3cc(F)ccc32)cc1` [Compound 25], the EC50 with HCT-116 cells (setting [1]) and in the assay with RKO cells (setting [2]) was over 3 µM each time.
For `CSc1ccc(/C=C2\C=C(CC(=O)NCc3ccc([N+](=O)[O-])cc3)c3cc(F)ccc32)cc1` [Compound 26], the results for the EC50 with HCT-116 cells (setting [1]) and with RKO cells (setting [2]) were 2.1 ± 0.7 µM and 0.54 ± 0.07 µM, respectively.
For `CSc1ccc(/C=C2\C=C(CC(=O)NCc3cccc([N+](=O)[O-])c3)c3cc(F)ccc32)cc1` [Compound 27], the EC50 in the assay on HCT-116 cells (setting [1]) and with RKO cells (setting [2]) was over 3 µM in each case.
For the compound `CSc1ccc(/C=C2\C=C(CC(=O)NCc3ccccc3[N+](=O)[O-])c3cc(F)ccc32)cc1` [Compound 28], the EC50 with HCT-116 cells (setting [1]) and in the assay with RKO cells (setting [2]) was over 3 µM throughout.
On to `[N-]=[N+]=NCc1ccc(/C=C2\C=C(CC(=O)NCc3ccc(C4(c5ccccc5)CO4)cc3)c3cc(F)ccc32)cc1` (centres unmarked) [Compound 29], for which the EC50 with HCT-116 cells (setting [1]) and with RKO cells (setting [2]) was over 3 µM throughout.
`CSc1ccc(/C=C2\C=C(CC(=O)NCc3ccc(C(=O)c4ccccc4)cc3)c3cc(F)ccc32)cc1` [Compound 30]: the EC50 with HCT-116 cells (setting [1]) is 0.18 ± 0.04 µM; in the assay with RKO cells (setting [2]), 0.04 ± 0.02 µM.
On the same counts, the results for `[N-]=[N+]=NCc1ccc(/C=C2\C=C(CC(=O)NCc3ccc(NC(=O)CBr)cc3)c3cc(F)ccc32)cc1` [Compound 31] are over 3 µM and over 3 µM.
As for `C[S+]([O-])c1ccc(/C=C2\C=C(CC(=O)NCc3ccccc3)c3cc(F)ccc32)cc1` (centres unmarked) [Compound 32], the EC50 with HCT-116 cells (setting [3]) was 6 ± 1 µM; with RKO cells (setting [4]), 2.4 ± 0.2 µM.
On to `CS(=O)(=O)c1ccc(/C=C2\C=C(CC(=O)NCc3ccccc3)c3cc(F)ccc32)cc1` [Compound 33], for which the EC50 in the assay with HCT-116 cells (setting [3]) amounted to 1.2 ± 0.3 µM; in the assay with RKO cells (setting [4]), 0.8 ± 0.1 µM.
On to `O=C(CC1=C/C(=C\c2ccccc2)c2ccc(F)cc21)NCc1ccccc1` [Compound 34], for which the EC50 with RKO cells (setting [4]) was 5.4 ± 0.5 µM.
For `COc1ccc(/C=C2\C=C(CC(=O)NCc3ccccc3)c3cc(F)ccc32)cc1` [Compound 35], the values for the EC50 in the assay on HCT-116 cells (setting [3]) and in the assay on RKO cells (setting [4]) were 1 ± 0.8 µM and 0.7 ± 0.1 µM, respectively.
Regarding `O=C(O)CC1=C/C(=C\c2ccc(C(=O)O)cc2)c2ccc(F)cc21` [Compound 36], in the assay on RKO cells (setting [4]), the EC50 turned out to be 6.4 ± 0.6 µM.
As for `O=C(O)CC1=C/C(=C\c2ccc(Br)cc2)c2ccc(F)cc21` [Compound 37], in the assay on RKO cells (setting [4]), the EC50 was over 10 µM.
As for `O=C(CC1=C/C(=C\C2CCCCC2)c2ccc(F)cc21)NCc1ccccc1` [Compound 38], in the assay on RKO cells (setting [4]), the EC50 was found to be 6.7 ± 0.1 µM.
In the case of `COc1ccc2c(c1)c(CC(=O)O)c(C)n2C(=O)c1ccc(Cl)cc1` [Indomethacin, indomethacin, reference compound], the EC50 with HCT-116 cells (setting [1]) was 449 ± 97.6 µM; with RKO cells (setting [2]) it was 162 ± 11 µM.
Regarding `CSc1ccc(/C=C2/C(C)=C(CC(=O)O)c3cc(F)ccc32)cc1` [Sulindac sulfide, reference compound], the EC50 was 109 ± 10 µM with HCT-116 cells (setting [1]) and 98.2 ± 1.4 µM with RKO cells (setting [2]).
